Reference: patent US20240109897A1, “MODULATORS OF FPR1 AND METHODS OF USING THE SAME” (BEIJING TIANTAN HOSPITAL, priority 2021, published 2024)

Legend:
Type in all cases: in vivo
ICH mice [1] = assay: MRI lesion, hematoma and perihematomal edema volume in intracerebral hemorrhage (ICH) mouse model; settings: 5 mg/kg/daily i.p., first dose 1 h after ICH onset, vs vehicle
Excerpt: (§1) The intracerebral hemorrhage (ICH) model in mice was used to illustrate the protective benefits of the compounds of this disclosure, and FIG. 1 depicts the procedure in preparing this model. ICH was induced in C57 B/L6 male mice by the injection of an autologous blood or collagenase as previously described (Lauer et al., Circulation 124: 1654-1662 (2011); Rynkowski et al., Nat. Protoc. 3:122-128 (2008)). Mice were anesthetized using isoflurane inhalation and fixed on a stereotactic frame. A burr hole was drilled on the right side of the skull at 2.3 mm lateral to the midline and 0.5 mm anterior to the bregma. For the autologous blood model, 30 μl of non-heparinized blood was withdrawn from the angular vein. The first 5 μl blood was injected at a depth of 3 mm beneath the hole, and the rest 25 μl blood were injected at 3.7 mm beneath the hole with a rate of 1 μl/min. In the collagenase model, 0.038 U of the bacterial collagenase (in 0.5 μl saline) was infused to the striatum (0.5 mm anterior, 2.3 mm right lateral, and 3.5 mm deep relative to bregma) at a speed of 0.5 μl/min. Mice on the sham control were injected with an equal volume of saline. Throughout the procedure, the body temperature was maintained at 37° C. with a homeothermic blanket. After the surgery, mice were under observation with free access to food and water. […]
The total lesion volume was measured on the 7T small-animal MM scanner (Bruker, Corp., USA) as described (Li et al., 2017). The T2-weighted water imaging was recorded with following parameters (repetition time (TR)=4500 ms, echo time (TE)=65.5 ms, field of view (FOV)=28×28 mm^2, image matrix=256×256, at 0.5-mm slice thickness). […] The volumes were manually outlined and calculated by multiplying the sum of the volume by the distance between sections (0.5 mm) using MIPAV software. PHE volumes were calculated as total lesion volume minus hematoma volume. MRI data were analyzed by two investigators blinded to experimental groups.

ICH mice [2] = assay: Brain infiltrating neutrophils by flow cytometry in ICH mouse model; settings: vs vehicle
Excerpt: as §1, with “μl/min.” for “μl/min. Mice on the sham control were injected with an equal volume of saline. Throughout the procedure, the body temperature was maintained at 37° C. with a homeothermic blanket. After the surgery, mice were under observation with free access to food and water.”
Single cell suspension of brain tissues was prepared and stained with fluorochrome-conjugated antibodies. […] Flow cytometric measurements were performed on a FACS Aria III (BD Bioscience) and analyzed using Flowjo 7.6 software (Informer Technologies, Ashland, OR, USA).

ICH mice [3] = assay: Brain water content in ICH mouse model; settings: 5 mg/kg/daily i.p., first dose 1 h after ICH onset, 24 h, vs vehicle
Excerpt: as §1
Brain water content was measured at day 1 after ICH. […]

ICH mice [4] = assay: Neurological function assessment (mNSS, corner-turning test, rotarod test) in ICH mouse model; settings: vs vehicle
Excerpt: as §1, with “blanket.” for “blanket. After the surgery, mice were under observation with free access to food and water.”
The neurological function assessment was performed by investigators who were blinded to the two treatment groups. The modified Neurological Severity Score (mNSS), corner-turning test, and rotarod test were conducted to evaluate the neuro-deficits of the ICH mice at defined time points as described (Li et al., Proc. Nat. Acad. Sci. USA 114:E396-E405 (2017)). mice were evaluated for motor function (muscle and abnormal movement), sensory (visual, tactile, and proprioceptive), and reflexes (pinna, corneal, startle reflexes). […] The corner-turning test was used to evaluate the sensorimotor damage to quantify the turning preference (right or left) upon approaching a 30° corner. […] The percentage of ipsilateral turns was then calculated. […] The duration of each mouse on the rod was recorded. […]

[5] = day 1 and day 3 after ICH, 5 mg/kg i.p.

## Cc1ccc(O)c(-c2[nH]nc3c2C(c2ccc(C(F)(F)F)cc2)N(C2CCOCC2)C3=O)c1 (racemic) [Compound 1, Rac-3-(2-hydroxy-5-methylphenyl)-5-(tetrahydro-2H-pyran-4-yl)-4-(4-(trifluoromethyl)phenyl)-4,5-dihydropyrrolo[3,4-c]pyrazol-6(2H)-one]
ICH mice [1]
  perihematomal edema (PHE) size: significantly reduced
ICH mice [2]; Day 3, 5 mg/kg i.p.
  reduction of total number of brain-infiltrated neutrophils: 54%
ICH mice [2]; Day-1, 5 mg/kg i.p.
  reduction of total number of brain-infiltrated neutrophils: 47%
ICH mice [3]
  total brain water content: significantly reduced
ICH mice [4]; 5 mg/kg/daily i.p., first dose 1 h after ICH onset
  neurological outcomes: improved
ICH mice [4]; [5]
  locomotor function scores (corner turn test, rotarod test): improved
  modified neurological symptom score (mNSS): improved
